{"source": "patent US20260345620A1", "about": "“IMPROVEMENTS IN OR RELATING TO COMPOSITIONS FOR TREATMENT OF LESIONS” (SYDERMA LTD, priority 2023, published 2026)", "key": {"AK lesion": {"tested_on": "AK lesion", "test": "Split-scalp treatment of actinic keratoses with 5FU plus methylxanthine versus 5FU alone (Example 3)", "format": "in vivo, human", "conditions": "for AK lesion clearance / efficacy versus 5FU alone control: 0.5% w/v methylxanthine in combination with Efudix 5% 5FU", "procedure": "P values below 0.05, denoting significance, are as marked.\nResults are shown per individual patient.\nAll patients were treated solely on the scalp and were only treated on half of the scalp with the test compound and 5FU, while the other half was used as control, treated with 5FU alone. Separation between combination and 5FU only control was mostly done medially, with one patient having and anterior/posterior treatment setup. As in Example 2, the patients self-administered the test compound on the test region 10-20 minutes before applying the Efudix® cream containing 5% w/v 5FU. In application, 50-100 μL (1-2 drops) of the test compound solution was applied first in a thin water-based layer over the whole treated area evenly. 5-FU was applied 10-20 minutes later, via finger application, as per best practice and manufacturer's instructions. Patients applied the regimen at regular intervals, once daily. One fingertip unit (~0.5 g) was used for an equivalent of half the scalp area."}, "basal cell carcinomas [1]": {"tested_on": "basal cell carcinomas", "conditions": "topical; cited from earlier work"}, "[2]": {"conditions": "topical; percent of patients; cited from earlier work"}, "actinic keratoses [3]": {"tested_on": "actinic keratoses", "conditions": "topical; cited from earlier work"}, "[4]": {"conditions": "cited from earlier work"}, "basal cell carcinoma [5]": {"tested_on": "basal cell carcinoma", "test": "Topical theobromine alone on basal cell carcinoma in person (Example 8, comparative)", "format": "in vivo, human", "conditions": "0.5% theobromine solution once daily for 1 month", "procedure": "(§1) In another example a person with a clinical diagnosis of basal cell carcinoma was treated with 0.5% percent theobromine solution. In application, 50-100 μL (1-2 drops) of theobromine solution was applied in a thin water-based layer over the whole treated area evenly (up to 50 cm 2 area in total). Theobromine was applied once daily for 1 months. The patient was examined by a dermatologist before the treatment and one week after completion of the treatment."}, "PARP": {"tested_on": "PARP", "conditions": "role: inhibitor; physiologically and clinically achievable conditions; cited from earlier work"}, "actinic keratoses [6]": {"tested_on": "actinic keratoses", "test": "Topical theobromine alone on actinic keratoses on scalp of person (Example 9, comparative)", "format": "in vivo, human", "procedure": "(§2) In another experiment a person with an area of actinic keratoses on their scalp was treated with 0.5% theobromine solution once daily for 4 weeks. The theobromine solution was prepared in 25% ethanol and 50% glycerol, adjusted to pH 8 via 100 mM sodium hydrogen carbonate solution. Theobromine solution was stored at room temperature in the dark. In application, 50-100 μL (1-2 drops) of theobromine solution was applied first in a thin water-based layer over the whole treated area evenly.\n(§3) The patient reported no discomfort with treatment: pain and soreness were reported by the patient to be 0/10 in areas treated with theobromine treatment."}, "ATM": {"tested_on": "ATM", "conditions": "role: inhibitor; physiologically and clinically achievable conditions; cited from earlier work"}, "basal cell carcinoma [7]": {"tested_on": "basal cell carcinoma", "test": "Topical theobromine alone on basal cell carcinoma in person (Example 7, comparative)", "format": "in vivo, human", "conditions": "0.5% theobromine solution once daily for 2 months", "procedure": "as §1, with “for 2” for “for 1”, “months. At the end of the treatment, they were” for “months. The patient was”, “a dermatologist.” for “a dermatologist before the treatment and one week after completion of the treatment.”"}, "ATR": {"tested_on": "ATR", "conditions": "role: inhibitor; physiologically and clinically achievable conditions; cited from earlier work"}, "actinic keratoses [8]": {"tested_on": "actinic keratoses", "test": "Topical theobromine alone on actinic keratoses on nose of person (Example 10, comparative)", "format": "in vivo, human", "procedure": "as §2, with “nose” for “scalp”\nas §3"}, "basal cell carcinomas [9]": {"tested_on": "basal cell carcinomas", "test": "Topical treatment of basal cell carcinomas in person (Example 4)", "format": "in vivo, human", "conditions": "one month after completing 1 month once daily treatment; 5% 5-FU with (2 lesions) or without (1 lesion) 0.5% theobromine", "procedure": "In another example, a person with multiple basal cell carcinomas was treated with: 5% 5-fluorouracil (5-FU) cream alone (1 lesion, back, clinical diagnosis) or a combination of 5-FU cream and theobromine solution (2 lesions-biopsy confirmed basal cell carcinoma, right leg and basal cell carcinoma, left forearm, clinical diagnosis). The treatment was continued once daily for 1 month and 0.5% percent theobromine solution. In application, 50-100 μL (1-2 drops) of theobromine solution was applied in a thin water-based layer over the whole treated area evenly (up to 50 cm2 area in total). 5-FU was applied via finger application, as per best practice and manufacturer's instructions. One finger tip unit (0.5 g) was used to cover 1 lesion. 5FU was applied 30 min after theobromine. One month after completing treatment the patient was examined by a dermatologist. The lesions treated with 5FU and theobromine resolved and the lesion treated with 5FU persisted."}, "actinic keratoses [10]": {"tested_on": "actinic keratoses", "test": "Split-area topical treatment of actinic keratoses on scalp of person (Example 1)", "format": "in vivo, human", "procedure": "In one experiment a person with an actinic keratoses region on their scalp was treated with 5% 5-fluorouracil cream once daily for 30 days (as marked in FIG. 1, posterior region). Another area of actinic keratoses on their scalp (As marked on FIG. 1, anterior region) was treated with both 5% 5-fluorouracil cream once daily and 0.5% theobromine solution once daily for 30 days. The 5% 5-FU cream applied was a medically available cream from Mylan, commercially known as Efudix® cream. The theobromine solution was prepared in 25% ethanol and 50% glycerol, adjusted to pH 8 via 100 mM sodium hydrogen carbonate solution. Efudix® was stored as per manufacturer's instructions, at room temperature, and theobromine solution at room temperature in the dark. In application, 50-100 μL (1-2 drops) of theobromine solution was applied first in a thin water-based layer over the whole treated area evenly. 5-FU was applied 10-20 minutes later, via finger application, as per best practice and manufacturer's instructions. One fingertip unit (~0.5 g) was used for an equivalent of half the forehead area.\n(§4) Redness and inflammation were assessed by the responsible physician."}, "thymidylate synthase": {"tested_on": "thymidylate synthase", "conditions": "role: inhibitor; cited from earlier work"}, "actinic keratoses [11]": {"tested_on": "actinic keratoses", "test": "Split-scalp topical treatment of actinic keratoses in person (Example 2)", "format": "in vivo, human", "procedure": "Quantification is as described for Patient #2 in Table 1;\nIn another experiment a person with an actinic keratoses on their scalp was treated with 5% 5-fluorouracil cream 4× per week for 4 weeks (15 lesions, as marked in FIG. 2, left side of scalp). Another area of actinic keratoses on their scalp (16 lesions, as marked on FIG. 2, right side of scalp) was treated with both 5% 5-fluorouracil cream 4× per week and 0.5% theobromine solution 4× per week for 4 weeks. The 5% 5-FU cream applied was a medically available cream from Mylan, commercially known as Efudix® cream. The theobromine solution was prepared in 25% ethanol and 50% glycerol, adjusted to pH 8 via 100 mM sodium hydrogen carbonate solution. Efudix® was stored as per manufacturer's instructions, at room temperature, and theobromine solution at room temperature in the dark. In application, 50-100 μL (1-2 drops) of theobromine solution was applied first in a thin water-based layer over the whole treated area evenly. 5-FU was applied 10-20 minutes later, via finger application, as per best practice and manufacturer's instructions. One fingertip unit (~0.5 g) was used for an equivalent of half the forehead area.\nas §4"}, "[12]": {"conditions": "0.5% theobromine solution once daily for 4 weeks"}, "[13]": {"conditions": "four weeks after completion of treatment"}}, "data": [{"compound": "Cn1c(=O)c2c(ncn2C)n(C)c1=O", "note": "[caffeine]", "values": [{"measurement": "AK lesion clearance / efficacy versus 5FU alone control", "setting": "AK lesion", "value": "decreased efficacy"}, {"measurement": "trend in efficacy per patient", "setting": "AK lesion; 0.5% w/v methylxanthine with 5FU versus 5FU alone baseline", "value": "neither caffeine not theophylline showed any positive trends"}]}, {"compound": "CC(C)Cn1cnc2c(N)nc3ccccc3c21", "note": "[imiquimod]", "values": [{"measurement": "efficacy for basal cell carcinomas", "setting": "basal cell carcinomas [1]", "value": "70-80%"}, {"measurement": "patients with painful, severe inflammatory reaction", "setting": "[2]", "value": "20-50%"}, {"measurement": "efficacy for actinic keratoses", "setting": "actinic keratoses [3]", "value": "50-60%"}]}, {"compound": "Cn1cnc2c1c(=O)[nH]c(=O)n2C", "note": "[theobromine]", "values": [{"measurement": "solubility", "setting": "[4]", "value": "limited solubility"}, {"measurement": "change in lesion size or appearance", "setting": "basal cell carcinoma [5]", "value": "no change in the lesion size or appearance"}, {"measurement": "inflammation or pain", "setting": "basal cell carcinoma [5]", "value": "No evidence of inflammation or pain"}, {"measurement": "basal cell carcinoma outcome", "setting": "basal cell carcinoma [5]; one week after completion", "value": "basal cell carcinoma persisted"}, {"measurement": "inhibitory activity against PARP", "setting": "PARP", "value": "triple inhibitory activity (against ATM, ATR and PARP)"}, {"measurement": "pain and soreness reported by the patient", "setting": "actinic keratoses [6]; [12]", "value": "0 /10"}, {"measurement": "reduction in number of actinic keratoses", "setting": "actinic keratoses [6]; [12]", "value": "No reduction in a number of actinic keratoses"}, {"measurement": "discomfort reported by the patient", "setting": "actinic keratoses [6]; after 4 weeks of treatment", "value": "no discomfort"}, {"measurement": "redness or inflammation", "setting": "actinic keratoses [6]; after 4 weeks of treatment", "value": "no redness or inflammation detected"}, {"measurement": "inhibitory activity against ATM", "setting": "ATM", "value": "triple inhibitory activity (against ATM, ATR and PARP)"}, {"measurement": "basal cell carcinoma outcome", "setting": "basal cell carcinoma [7]", "value": "basal cell carcinoma persisted"}, {"measurement": "change in lesion appearance", "setting": "basal cell carcinoma [7]", "value": "no change in the lesion appearance"}, {"measurement": "inflammation or pain", "setting": "basal cell carcinoma [7]", "value": "No evidence of inflammation or pain"}, {"measurement": "inhibitory activity against ATR", "setting": "ATR", "value": "triple inhibitory activity (against ATM, ATR and PARP)"}, {"measurement": "pain and soreness reported by the patient", "setting": "actinic keratoses [8]; [12]", "value": "0 /10"}, {"measurement": "reduction in number of actinic keratoses", "setting": "actinic keratoses [8]; 1 week after completion of 4 weeks treatment", "value": "No reduction in a number of actinic keratoses"}, {"measurement": "discomfort reported by the patient", "setting": "actinic keratoses [8]; after 4 weeks of treatment", "value": "no discomfort"}, {"measurement": "redness or inflammation", "setting": "actinic keratoses [8]; after 4 weeks of treatment", "value": "no redness or inflammation detected"}, {"measurement": "AK lesion clearance / efficacy versus 5FU alone control", "setting": "AK lesion", "value": "significantly improved AK lesion clearance"}]}, {"compound": "O=c1[nH]cc(F)c(=O)[nH]1", "note": "[5-FU, 5-fluorouracil]", "values": [{"measurement": "basal cell carcinoma lesion outcome", "setting": "basal cell carcinomas [9]", "value": "persisted"}, {"measurement": "efficacy for basal cell carcinomas", "setting": "basal cell carcinomas [1]", "value": "60-70%"}, {"measurement": "inflammation and scaliness of treated area", "setting": "actinic keratoses [10]; a week following cessation of treatment", "value": "significant inflammation and scaly appearance"}, {"measurement": "pain and soreness reported by the patient", "setting": "actinic keratoses [10]; after 30 days of once daily treatment, 5% 5-FU cream with or without 0.5% theobromine solution", "value": "9 /10"}, {"measurement": "redness, soreness and inflammation assessed by physician", "setting": "actinic keratoses [10]; after 30 days of treatment", "value": "became inflamed"}, {"measurement": "discomfort reported by the patient", "setting": "actinic keratoses [10]; during 30 days of treatment", "value": "significant discomfort"}, {"measurement": "clearance of the actinic keratosis lesion", "setting": "actinic keratoses [10]; [13]", "value": "incomplete clearance"}, {"measurement": "pain reported by the patient", "setting": "actinic keratoses [10]; [13]", "value": "no pain reported by the patient"}, {"measurement": "residual inflammatory reaction", "setting": "actinic keratoses [10]; [13]", "value": "no visible residual inflammatory reaction"}, {"measurement": "reduction in size of actinic keratosis lesion", "setting": "actinic keratoses [10]; four weeks after completion of treatment, ImageJ image analysis", "value": "over 30%"}, {"measurement": "patients with painful, severe inflammatory reaction", "setting": "[2]", "value": "20-50%"}, {"measurement": "inhibition of thymidylate synthase", "setting": "thymidylate synthase", "value": "inhibitor of thymidylate synthase"}, {"measurement": "efficacy for actinic keratoses", "setting": "actinic keratoses [3]", "value": "50-60%"}, {"measurement": "redness, soreness and inflammation assessed by physician", "setting": "actinic keratoses [11]; after 4 weeks of treatment", "value": "became inflamed"}, {"measurement": "pain and soreness reported by the patient", "setting": "actinic keratoses [11]; after 4 weeks, 4x per week, 5% 5-FU cream with or without 0.5% theobromine solution", "value": "2 /10"}, {"measurement": "discomfort reported by the patient", "setting": "actinic keratoses [11]; during 4 weeks of treatment", "value": "mild discomfort"}, {"measurement": "clearance of the actinic keratosis lesions", "setting": "actinic keratoses [11]; [13]", "value": "incomplete clearance"}, {"measurement": "pain reported by the patient", "setting": "actinic keratoses [11]; [13]", "value": "no pain reported by the patient"}, {"measurement": "residual inflammatory reaction", "setting": "actinic keratoses [11]; [13]", "value": "no visible residual inflammatory reaction"}, {"measurement": "actinic keratosis lesion count after treatment", "setting": "actinic keratoses [11]; four weeks after completion, starting count 15 (5-FU alone), 16 (combination)", "value": 14, "unit": "lesions"}]}]}
